Test results reported in the kinase profiling compilation of Christmann-Franck et al. (2016).

Columns and labels:
Experiment in all cases: radiometric filter-binding kinase assay
[1] = system: AKT1 (human), P31749 [S473D]
[2] = molecular target: BRSK2 (human) (UniProt Q8IWQ3)
[3] = molecular target: CLK2 (human) (UniProt P49760)
[4] = molecular target: CSNK2A1 (human) (UniProt P68400)
[5] = molecular target: DAPK1 (human) (UniProt P53355)
[6] = molecular target: DYRK1A (human) (UniProt Q13627)
[7] = molecular target: DYRK3 (human) (UniProt O43781)
[8] = molecular target: EPHB3 (human) (UniProt P54753)
[9] = molecular target: IKBKB (human) (UniProt O14920)
[10] = molecular target: IKBKE (human) (UniProt Q14164)
[11] = molecular target: IRAK4 (human) (UniProt Q9NWZ3)
[12] = molecular target: MAP3K11 (human) (UniProt Q16584)
[13] = molecular target: MAP3K7 TAB1 (human) (UniProt Q15750+O43318)
[14] = molecular target: MAPK11 (human) (UniProt Q15759)
[15] = molecular target: MAPK12 (human) (UniProt P53778)
[16] = molecular target: MAPK14 (human) (UniProt Q16539)
[17] = molecular target: MAPK3 (human) (UniProt P27361)
[18] = molecular target: MAPK8 (human) (UniProt P45983)
[19] = molecular target: MAPKAPK3 (human) (UniProt Q16644)
[20] = molecular target: MAPKAPK5 (human) (UniProt Q8IW41)
[21] = molecular target: MKNK2 (human) (UniProt Q9HBH9)
[22] = molecular target: NTRK1 (human) (UniProt P04629)
[23] = molecular target: PAK4 (human) (UniProt O96013)
[24] = molecular target: PIM1 (human) (UniProt P11309)
[25] = molecular target: PIM2 (human) (UniProt Q9P1W9)
[26] = molecular target: PIM3 (human) (UniProt Q86V86)
[27] = molecular target: PLK1 (human) (UniProt P53350)
[28] = system: ROCK2 (rat); details: accession and sequence are those of the human protein
[29] = molecular target: RPS6KA1 KD1 KD2 (human) (UniProt Q15418)
[30] = molecular target: RPS6KA3 KD1 KD2 (human) (UniProt P51812)
[31] = system: RPS6KB1 (human), P23443 [T412E]
[32] = system: SGK1 (human), O00141 [S422D]
[33] = molecular target: STK3 (human) (UniProt Q13188)
[34] = molecular target: TBK1 (human) (UniProt Q9UHD2)
Sequence of TBK1 (human) (Q9UHD2 whole entry, looked up): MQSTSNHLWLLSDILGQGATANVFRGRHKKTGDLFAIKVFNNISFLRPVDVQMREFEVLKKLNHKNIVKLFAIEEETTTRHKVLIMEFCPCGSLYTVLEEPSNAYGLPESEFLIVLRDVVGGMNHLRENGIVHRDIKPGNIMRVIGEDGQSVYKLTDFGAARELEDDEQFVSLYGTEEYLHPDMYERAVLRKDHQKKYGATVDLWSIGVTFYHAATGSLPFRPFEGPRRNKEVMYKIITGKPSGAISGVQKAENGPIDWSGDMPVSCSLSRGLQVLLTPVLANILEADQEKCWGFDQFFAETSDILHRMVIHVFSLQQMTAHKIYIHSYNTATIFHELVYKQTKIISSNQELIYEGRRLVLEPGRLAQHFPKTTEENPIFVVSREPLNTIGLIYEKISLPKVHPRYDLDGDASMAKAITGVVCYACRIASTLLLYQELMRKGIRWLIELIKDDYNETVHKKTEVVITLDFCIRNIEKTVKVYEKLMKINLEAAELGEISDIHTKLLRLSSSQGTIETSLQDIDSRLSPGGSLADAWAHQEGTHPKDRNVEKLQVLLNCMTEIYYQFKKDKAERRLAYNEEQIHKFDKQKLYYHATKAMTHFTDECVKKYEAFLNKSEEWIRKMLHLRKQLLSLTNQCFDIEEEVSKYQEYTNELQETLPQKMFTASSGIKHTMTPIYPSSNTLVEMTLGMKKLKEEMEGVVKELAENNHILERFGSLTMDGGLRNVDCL

Sequence of MAPKAPK5 (human) (Q8IW41 whole entry, looked up): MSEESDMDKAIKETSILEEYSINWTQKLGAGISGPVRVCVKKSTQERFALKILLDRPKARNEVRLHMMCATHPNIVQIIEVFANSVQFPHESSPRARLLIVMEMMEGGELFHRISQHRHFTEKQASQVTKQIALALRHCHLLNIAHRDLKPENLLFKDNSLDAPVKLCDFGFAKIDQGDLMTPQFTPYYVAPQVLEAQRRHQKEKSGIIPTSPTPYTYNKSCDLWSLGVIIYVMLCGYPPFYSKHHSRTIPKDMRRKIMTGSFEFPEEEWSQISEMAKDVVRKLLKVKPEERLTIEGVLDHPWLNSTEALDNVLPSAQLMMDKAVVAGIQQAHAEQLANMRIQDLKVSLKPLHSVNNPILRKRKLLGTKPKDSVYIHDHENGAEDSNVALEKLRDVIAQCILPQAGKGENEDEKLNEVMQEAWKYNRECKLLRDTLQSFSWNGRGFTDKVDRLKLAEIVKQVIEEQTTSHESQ
Sequence of MKNK2 (human) (Q9HBH9 whole entry, looked up): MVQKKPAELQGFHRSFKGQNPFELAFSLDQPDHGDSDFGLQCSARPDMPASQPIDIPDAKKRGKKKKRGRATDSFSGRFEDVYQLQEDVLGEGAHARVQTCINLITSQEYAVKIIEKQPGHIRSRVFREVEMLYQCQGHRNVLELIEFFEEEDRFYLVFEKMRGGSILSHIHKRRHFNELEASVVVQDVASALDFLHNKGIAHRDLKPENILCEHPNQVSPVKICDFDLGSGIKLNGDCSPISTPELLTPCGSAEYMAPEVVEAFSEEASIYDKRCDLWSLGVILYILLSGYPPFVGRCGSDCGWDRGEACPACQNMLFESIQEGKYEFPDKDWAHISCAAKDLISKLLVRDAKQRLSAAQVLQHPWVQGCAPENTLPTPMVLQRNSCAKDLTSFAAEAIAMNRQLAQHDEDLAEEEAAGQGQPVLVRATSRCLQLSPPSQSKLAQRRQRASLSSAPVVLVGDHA
Sequence of PIM2 (human) (Q9P1W9 whole entry, looked up): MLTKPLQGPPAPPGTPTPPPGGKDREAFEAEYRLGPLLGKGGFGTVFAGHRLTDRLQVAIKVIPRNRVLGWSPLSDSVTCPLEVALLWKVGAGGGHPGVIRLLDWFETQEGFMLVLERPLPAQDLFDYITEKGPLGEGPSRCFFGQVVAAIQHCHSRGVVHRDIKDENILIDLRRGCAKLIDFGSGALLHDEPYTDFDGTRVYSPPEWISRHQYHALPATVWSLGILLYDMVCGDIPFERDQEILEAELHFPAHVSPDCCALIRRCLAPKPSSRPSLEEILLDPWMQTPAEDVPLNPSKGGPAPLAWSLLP
Sequence of MAPK8 (human) (P45983 whole entry, looked up): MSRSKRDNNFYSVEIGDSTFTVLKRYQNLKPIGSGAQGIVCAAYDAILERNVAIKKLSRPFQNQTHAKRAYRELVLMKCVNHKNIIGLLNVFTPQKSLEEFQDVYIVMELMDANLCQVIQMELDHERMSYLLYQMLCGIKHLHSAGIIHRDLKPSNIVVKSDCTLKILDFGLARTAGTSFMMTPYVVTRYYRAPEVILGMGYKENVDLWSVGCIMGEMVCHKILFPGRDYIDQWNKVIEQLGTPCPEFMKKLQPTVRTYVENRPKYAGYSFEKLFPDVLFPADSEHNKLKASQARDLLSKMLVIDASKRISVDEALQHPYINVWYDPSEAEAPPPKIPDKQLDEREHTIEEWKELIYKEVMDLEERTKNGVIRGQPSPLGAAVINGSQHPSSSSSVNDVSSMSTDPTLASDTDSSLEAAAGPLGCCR
Sequence of RPS6KA1 KD1 KD2 (human) (Q15418 whole entry, looked up): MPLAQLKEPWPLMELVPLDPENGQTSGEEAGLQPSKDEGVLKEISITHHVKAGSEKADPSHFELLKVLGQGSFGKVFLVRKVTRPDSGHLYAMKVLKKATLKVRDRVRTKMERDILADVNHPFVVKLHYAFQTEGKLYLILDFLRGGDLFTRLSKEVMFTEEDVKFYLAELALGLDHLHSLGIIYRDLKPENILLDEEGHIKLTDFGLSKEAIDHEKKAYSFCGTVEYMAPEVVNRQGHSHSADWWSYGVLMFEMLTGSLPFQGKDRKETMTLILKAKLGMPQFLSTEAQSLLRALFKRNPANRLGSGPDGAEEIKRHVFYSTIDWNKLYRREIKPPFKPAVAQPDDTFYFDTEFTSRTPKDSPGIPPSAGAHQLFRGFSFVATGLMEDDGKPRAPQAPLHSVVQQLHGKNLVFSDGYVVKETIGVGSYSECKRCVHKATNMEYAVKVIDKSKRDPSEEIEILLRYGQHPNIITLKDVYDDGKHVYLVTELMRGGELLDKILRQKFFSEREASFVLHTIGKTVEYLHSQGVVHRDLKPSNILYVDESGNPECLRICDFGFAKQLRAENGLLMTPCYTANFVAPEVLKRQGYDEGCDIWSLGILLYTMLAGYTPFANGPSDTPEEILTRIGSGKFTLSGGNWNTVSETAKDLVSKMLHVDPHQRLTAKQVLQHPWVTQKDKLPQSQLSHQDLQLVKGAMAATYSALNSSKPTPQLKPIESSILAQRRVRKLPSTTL
Sequence of STK3 (human) (Q13188 whole entry, looked up): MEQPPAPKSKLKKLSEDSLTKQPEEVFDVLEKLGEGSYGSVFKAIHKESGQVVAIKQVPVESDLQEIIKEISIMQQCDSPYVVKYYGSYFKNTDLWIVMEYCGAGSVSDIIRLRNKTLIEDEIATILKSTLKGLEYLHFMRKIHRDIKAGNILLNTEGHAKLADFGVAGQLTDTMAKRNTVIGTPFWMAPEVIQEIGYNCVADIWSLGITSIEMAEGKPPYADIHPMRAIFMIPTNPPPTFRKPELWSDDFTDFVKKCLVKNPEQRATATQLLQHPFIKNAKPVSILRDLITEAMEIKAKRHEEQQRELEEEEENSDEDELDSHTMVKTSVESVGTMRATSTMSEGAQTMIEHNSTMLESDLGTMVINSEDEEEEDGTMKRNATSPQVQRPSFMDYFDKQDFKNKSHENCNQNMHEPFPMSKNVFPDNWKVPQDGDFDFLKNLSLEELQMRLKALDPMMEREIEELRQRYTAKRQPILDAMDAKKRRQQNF
Sequence of PAK4 (human) (O96013 whole entry, looked up): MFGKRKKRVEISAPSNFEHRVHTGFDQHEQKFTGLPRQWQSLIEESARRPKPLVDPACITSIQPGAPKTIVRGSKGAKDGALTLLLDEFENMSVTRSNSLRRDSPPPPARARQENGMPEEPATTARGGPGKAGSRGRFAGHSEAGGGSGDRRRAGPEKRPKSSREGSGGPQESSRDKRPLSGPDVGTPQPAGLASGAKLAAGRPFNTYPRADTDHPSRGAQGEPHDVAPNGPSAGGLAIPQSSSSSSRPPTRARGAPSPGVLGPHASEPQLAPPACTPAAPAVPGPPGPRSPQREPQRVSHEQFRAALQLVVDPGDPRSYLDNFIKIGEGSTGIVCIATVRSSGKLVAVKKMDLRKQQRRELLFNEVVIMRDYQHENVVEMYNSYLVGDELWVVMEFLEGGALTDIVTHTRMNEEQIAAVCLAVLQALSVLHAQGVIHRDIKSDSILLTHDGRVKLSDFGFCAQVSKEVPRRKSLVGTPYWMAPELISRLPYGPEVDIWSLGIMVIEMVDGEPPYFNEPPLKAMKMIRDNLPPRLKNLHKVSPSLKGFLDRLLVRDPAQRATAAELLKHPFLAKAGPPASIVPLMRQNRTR
Sequence of MAPK3 (human) (P27361 whole entry, looked up): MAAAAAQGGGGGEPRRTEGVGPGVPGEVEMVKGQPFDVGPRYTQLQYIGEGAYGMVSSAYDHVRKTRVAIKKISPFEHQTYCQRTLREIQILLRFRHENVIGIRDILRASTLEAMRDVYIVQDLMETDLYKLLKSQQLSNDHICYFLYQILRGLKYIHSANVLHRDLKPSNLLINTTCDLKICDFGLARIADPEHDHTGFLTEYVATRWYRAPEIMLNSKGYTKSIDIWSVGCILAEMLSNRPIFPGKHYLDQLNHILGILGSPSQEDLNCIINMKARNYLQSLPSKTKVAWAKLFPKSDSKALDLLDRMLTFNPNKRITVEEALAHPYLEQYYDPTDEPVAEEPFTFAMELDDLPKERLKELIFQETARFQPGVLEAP

Question: Which residual activity ([1]; compound 0.1 µM) does the source give for `NC(=O)c1cc2c(-c3cccc(-c4ccccc4)c3)cnc(N)c2s1` here?
Answer: 105%

Question: What about the residual activity ([1]; compound 1.0 µM) of the same compound?
Answer: 104%

Question: What about the residual activity ([1]; compound 10.0 µM) of the same compound?
Answer: 108%

Question: And the residual activity ([2]; compound 0.1 µM)?
Answer: 109%

Question: What about the residual activity ([2]; compound 1.0 µM) of the same compound?
Answer: 108%

Question: And the residual activity ([2]; compound 10.0 µM)?
Answer: 130%

Question: What about the residual activity ([3]; compound 0.1 µM) of the same compound?
Answer: 50%

Question: What about the residual activity ([3]; compound 1.0 µM) of the same compound?
Answer: 10%

Question: What about the residual activity ([3]; compound 10.0 µM) of the same compound?
Answer: 2%

Question: What about the residual activity ([4]; compound 0.1 µM) of the same compound?
Answer: 91%

Question: What about the residual activity ([4]; compound 1.0 µM) of the same compound?
Answer: 94%

Question: What about the residual activity ([4]; compound 10.0 µM) of the same compound?
Answer: 100%

Question: And the residual activity ([5]; compound 0.1 µM)?
Answer: 76%

Question: What about the residual activity ([5]; compound 1.0 µM) of the same compound?
Answer: 40%

Question: And the residual activity ([5]; compound 10.0 µM)?
Answer: 10%

Question: And the residual activity ([6]; compound 0.1 µM)?
Answer: 72%

Question: What about the residual activity ([6]; compound 1.0 µM) of the same compound?
Answer: 21%

Question: What about the residual activity ([6]; compound 10.0 µM) of the same compound?
Answer: 5%

Question: And the residual activity ([7]; compound 0.1 µM)?
Answer: 97%

Question: What about the residual activity ([7]; compound 1.0 µM) of the same compound?
Answer: 76%

Question: And the residual activity ([7]; compound 10.0 µM)?
Answer: 59%

Question: And the residual activity ([8]; compound 0.1 µM)?
Answer: 128%

Question: And the residual activity ([8]; compound 1.0 µM)?
Answer: 113%

Question: And the residual activity ([8]; compound 10.0 µM)?
Answer: 92%

Question: And the residual activity ([9]; compound 0.1 µM)?
Answer: 96%

Question: And the residual activity ([9]; compound 1.0 µM)?
Answer: 81%

Question: And the residual activity ([9]; compound 10.0 µM)?
Answer: 65%

Question: What about the residual activity ([10]; compound 0.1 µM) of the same compound?
Answer: 109%

Question: And the residual activity ([10]; compound 1.0 µM)?
Answer: 86%

Question: What about the residual activity ([10]; compound 10.0 µM) of the same compound?
Answer: 31%

Question: And the residual activity ([11]; compound 0.1 µM)?
Answer: 127%

Question: What about the residual activity ([11]; compound 1.0 µM) of the same compound?
Answer: 92%

Question: What about the residual activity ([11]; compound 10.0 µM) of the same compound?
Answer: 44%

Question: And the residual activity ([12]; compound 0.1 µM)?
Answer: 74%

Question: What about the residual activity ([12]; compound 1.0 µM) of the same compound?
Answer: 19%

Question: What about the residual activity ([12]; compound 10.0 µM) of the same compound?
Answer: 4%

Question: And the residual activity ([13]; compound 1.0 µM)?
Answer: 8%

Question: And the residual activity ([13]; compound 10.0 µM)?
Answer: 2%

Question: And the residual activity ([14]; compound 0.1 µM)?
Answer: 96%

Question: What about the residual activity ([14]; compound 1.0 µM) of the same compound?
Answer: 111%

Question: And the residual activity ([14]; compound 10.0 µM)?
Answer: 80%

Question: And the residual activity ([15]; compound 0.1 µM)?
Answer: 93%

Question: What about the residual activity ([15]; compound 1.0 µM) of the same compound?
Answer: 76%

Question: And the residual activity ([15]; compound 10.0 µM)?
Answer: 38%

Question: What about the residual activity ([16]; compound 0.1 µM) of the same compound?
Answer: 110%

Question: What about the residual activity ([16]; compound 1.0 µM) of the same compound?
Answer: 101%

Question: What about the residual activity ([16]; compound 10.0 µM) of the same compound?
Answer: 59%

Question: What about the residual activity ([17]; compound 1.0 µM) of the same compound?
Answer: 58%

Question: What about the residual activity ([17]; compound 10.0 µM) of the same compound?
Answer: 16%

Question: What about the residual activity ([18]; compound 0.1 µM) of the same compound?
Answer: 111%

Question: What about the residual activity ([18]; compound 1.0 µM) of the same compound?
Answer: 69%

Question: What about the residual activity ([18]; compound 10.0 µM) of the same compound?
Answer: 15%

Question: And the residual activity ([19]; compound 0.1 µM)?
Answer: 93%

Question: And the residual activity ([19]; compound 1.0 µM)?
Answer: 84%

Question: What about the residual activity ([19]; compound 10.0 µM) of the same compound?
Answer: 69%

Question: What about the residual activity ([20]; compound 0.1 µM) of the same compound?
Answer: 87%

Question: And the residual activity ([20]; compound 1.0 µM)?
Answer: 42%

Question: And the residual activity ([20]; compound 10.0 µM)?
Answer: 15%

Question: And the residual activity ([21]; compound 1.0 µM)?
Answer: 91%

Question: And the residual activity ([21]; compound 10.0 µM)?
Answer: 66%

Question: What about the residual activity ([22]; compound 0.1 µM) of the same compound?
Answer: 92%

Question: What about the residual activity ([22]; compound 1.0 µM) of the same compound?
Answer: 73%

Question: And the residual activity ([22]; compound 10.0 µM)?
Answer: 28%

Question: And the residual activity ([23]; compound 0.1 µM)?
Answer: 65%

Question: And the residual activity ([23]; compound 1.0 µM)?
Answer: 18%

Question: What about the residual activity ([23]; compound 10.0 µM) of the same compound?
Answer: 7%

Question: What about the residual activity ([24]; compound 0.1 µM) of the same compound?
Answer: 112%

Question: What about the residual activity ([24]; compound 1.0 µM) of the same compound?
Answer: 89%

Question: What about the residual activity ([24]; compound 10.0 µM) of the same compound?
Answer: 41%

Question: And the residual activity ([25]; compound 0.1 µM)?
Answer: 98%

Question: And the residual activity ([25]; compound 1.0 µM)?
Answer: 95%

Question: And the residual activity ([25]; compound 10.0 µM)?
Answer: 81%

Question: What about the residual activity ([26]; compound 0.1 µM) of the same compound?
Answer: 101%

Question: And the residual activity ([26]; compound 1.0 µM)?
Answer: 88%

Question: What about the residual activity ([26]; compound 10.0 µM) of the same compound?
Answer: 42%

Question: What about the residual activity ([27]; compound 0.1 µM) of the same compound?
Answer: 108%

Question: And the residual activity ([27]; compound 1.0 µM)?
Answer: 98%

Question: What about the residual activity ([27]; compound 10.0 µM) of the same compound?
Answer: 97%

Question: And the residual activity ([28]; compound 0.1 µM)?
Answer: 75%

Question: And the residual activity ([28]; compound 1.0 µM)?
Answer: 31%

Question: And the residual activity ([28]; compound 10.0 µM)?
Answer: 7%

Question: And the residual activity ([29]; compound 0.1 µM)?
Answer: 92%

Question: What about the residual activity ([29]; compound 1.0 µM) of the same compound?
Answer: 65%

Question: What about the residual activity ([29]; compound 10.0 µM) of the same compound?
Answer: 31%

Question: And the residual activity ([30]; compound 0.1 µM)?
Answer: 108%

Question: And the residual activity ([30]; compound 1.0 µM)?
Answer: 84%

Question: What about the residual activity ([30]; compound 10.0 µM) of the same compound?
Answer: 53%

Question: And the residual activity ([31]; compound 0.1 µM)?
Answer: 112%

Question: What about the residual activity ([31]; compound 1.0 µM) of the same compound?
Answer: 90%

Question: What about the residual activity ([31]; compound 10.0 µM) of the same compound?
Answer: 39%

Question: What about the residual activity ([32]; compound 0.1 µM) of the same compound?
Answer: 92%

Question: What about the residual activity ([32]; compound 1.0 µM) of the same compound?
Answer: 58%

Question: And the residual activity ([32]; compound 10.0 µM)?
Answer: 46%

Question: What about the residual activity ([33]; compound 0.1 µM) of the same compound?
Answer: 108%

Question: And the residual activity ([33]; compound 1.0 µM)?
Answer: 59%

Question: What about the residual activity ([33]; compound 10.0 µM) of the same compound?
Answer: 21%

Question: And the residual activity ([34]; compound 0.1 µM)?
Answer: 98%

Question: And the residual activity ([34]; compound 1.0 µM)?
Answer: 91%

Question: And the residual activity ([34]; compound 10.0 µM)?
Answer: 47%
